The values that follow come from patent publication US5468772A, “Tripterinin compound and method” (Pharmagenesis, Inc., priority 1993, dated 1995).

Common to all, as to format: cell-based
For series [1], the system named is cultured human PBLs and mouse thymocytes. Description: Cytotoxicity, trypan blue vital dye staining. The following applies: up to 10 μg/ml. As for the experimental part: Potential cytotoxicity of tripterinin was assessed by measurement of the effect of the compound on reduction of MTT (3-[4,5-Dimethylthiazol-2-yl]-2,5-diphenyltetrazolium bromide) by cultured cells, an index of cellular respiration and a sensitive assay for the detection of cytotoxicity (Green, et al.). Toxicity was evaluated in vitro in human PBLs and in mouse thymocytes, as detailed in Example 7. Sodium azide was used as a cytotoxic control. Cytotoxicity was also assessed using the standard method of trypan blue dye staining.
Cytotoxicity was assessed in cultured human PBLs and mouse thymocytes. A stock solution of MTT (Sigma), 5 mg MTT/ml phosphate buffered saline, pH 7.4, was prepared and stored in the dark at 4° C. Following 21 hours incubation under conditions identical to those above, 25 μl of MTT solution was added to each culture well. After an additional 3 hour incubation, the experiment was terminated by addition of a solution of 10% sodium dodecyl sulfate in 0.01N HCl. Following overnight incubation at 37° C. (to solubilize the formazan crystals, the MTT reduction product), optical density was determined at 570-650 nm in a Molecular Devices microtiter plate reader. Data are expressed as the ratio of the optical density of the tripterinin treated sample to that of untreated controls. […] The standard method of trypan blue vital dye staining was also used to assess toxicity.

Series [2] concerns TNFα. Description: TNFα production by PHA stimulated human PBLs (ELISA). The note with it: 24 h. How it is done: (§1) The effect of tripterinin on the production of the cytokines IL-1b, IL2, IL-6, IFNγ, and TNFα was assessed by measurement of the concentration of these cytokines in PHA stimulated human PBL cultures. Cytokine levels were measured by standard ELISA methods using commercially available kits, as detailed in Example 6. Briefly, assay buffer was added to each of the wells of a microtiter plate containing pre-bound anti-cytokine antibody, followed by addition of standard or sample solution, diluted appropriately for the cytokine concentration measured, followed by a second reporter-labeled antibody specific against the anti-cytokine antibody. […]
(§2) Cytokine measurements were carried out using commercially available ELISA assay kits (R&D Systems), in accordance with the supplier's protocols. In brief, 100 μl of the assay buffer supplied was added to each of the wells of a microtiter plate containing pre-bound anti-cytokine antibody, followed by 100 μl of standard or sample solution, diluted appropriately for the concentration range measured. […]
(§3) Following two hours incubation, the plates were washed four times with assay buffer, and the second antibody, anti-anti-cytokine-horseradish peroxidase (HRP), was added to each well in a volume of 200 μl. […] Optical density was determined using a Molecular Devices microtiter plate reader.
(In general: ELISA stands for enzyme-linked immunosorbent assay.)

In series [3] the test system is HT-2 cells. Description: Inhibition of IL-2 action: IL-2 stimulated HT-2 cell proliferation. How it is done:
Briefly, HT-2 cells were incubated in the presence of IL2, and in the presence of increasing concentrations of tripterinin. After 20 hours incubation, tritiated thymidine was added and the incubation carried out for an additional 4 hours. Cells were harvested and counted as described for PBL proliferation. […] Half maximal inhibition occurred at about 0.1 μg/ml.
The effect of tripterinin on the action of IL-2 was assessed by measurement of the compound's ability to inhibit IL-2 stimulated growth of the IL-2 dependent cell line HT-2, a well-established biological assay of IL-2 action (O'Gara). HT-2 cells were cultured in 75 cm^2 (Corning) tissue culture flasks in RPMI 1640 medium containing 10% fetal bovine serum (Hyclone), 50 μM 2-mercaptoethanol (Fisher), 10 U/ml recombinant human IL-2 (Cetus), 20 mM HEPES, 2 mM glutamine, 100 U/ml penicillin and 100 μg/ml streptomycin. Cells were passaged every 2 days. For experiments, HT-2 cells were centrifuged at 180×g for 10 minutes, washed twice with 10 ml of IL-2 free culture medium and resuspended in RPMI 1640 medium prepared as above, except containing 5% fetal bovine serum. Final cell concentration was 1×10^4 /well. Cultures were incubated with varying concentrations of the tripterinin (95% air/5% CO2, 37° C.) for 20 hours. […] Cells were harvested and counted as described for the PBL proliferation assay.

The test system of series [4] is IFNγ. The series is described as follows: IFNγ production by PHA stimulated human PBLs (ELISA). The following applies: 24 h. How it is done: as §1, §2, §3
For series [5], the system named is mouse thymocytes. The series is described as follows: Inhibition of IL-1 action: IL-1 stimulated mouse thymocyte proliferation in presence of PHA. As for the experimental part: The ability of tripterinin and tripterifordin to suppress the cell-proliferative effect of IL-1 in mouse thymocytes, an index of IL-1 action (O'Gara), was also examined. In this study, mouse thymocytes in culture were stimulated with IL-1 in the presence of phytohemagglutinin (PHA) and increasing concentrations of purified tripterinin or tripterifordin. The cells were cultured for 72 hours, and during the last four hours, incubated with tritiated thymidine. DNA synthesis was assessed by measurement of radiolabeled thymidine incorporation.
Mouse thymocytes were prepared, and the action of IL-1, which stimulates thymocyte proliferation, was measured using standard techniques (O'Gara). Three to six week old C3H/HeN mice were obtained from Simonsen Laboratories, Gilroy, Calif. and sacrificed by CO2 inhalation. Thymi were removed, separated from adherent non-thymic tissue, homogenized in Hank's balanced salt solution (Gibco) using a glass homogenizer, and centrifuged at 180×g for 10 minutes at 15° C. Following an additional wash in HBSS, the thymocytes were resuspended in RPMI 1640 tissue culture medium (Gibco) containing 50 μM 2-mercaptoethanol (Fisher), 2 mM glutamine (Gibco), 1 mM sodium pyruvate, non-essential amino acids, penicillin (100 U/ml) streptomycin (100 μg/ml), 10% heat inactivated fetal bovine serum and Phytohemagglutinin (PHA, Pharmacia, final concentration 10 μg/ml). Cells were cultured in round-bottom 96 well microtiter tissue culture plates, 6×10^5 cells per well in a volume of 100 μl. Tripterinin or tripterifordin was diluted in tissue culture medium and added to the wells in the presence and absence of IL-1 (recombinant human IL-1, R&D Systems catalog #201-LB, 0.1 ng/ml). Total volume was 150 μl per well.
Plates were incubated for 72 hours (95% air/5% CO2, 37° C.). During the last four hours of incubation, [^3 H]-thymidine (Amersham, […]) was added (0.5 μCi per well). Cells were harvested onto Whatman 934-AH glass microfiber filters and counted in a Beckman LS 6000 scintillation counter. Results were expressed as counts per minute per well.

As for `C[C@]12CCC[C@]3(COC1=O)[C@@H]2CC[C@@]12C[C@@H](CC[C@]13O)[C@](C)(O)C2` [tripterinin], the “cytotoxicity (trypan blue staining)” value in series [1] is recorded as “consistent with those from the MTT reduction assay”; in series [1] (listed as Tripterinin) it was “no significant toxicity”. In addition, the “decrease in TNFα production” value is reported as 93% in series [2] (0.7 μg/ml tripterinin) and 98% in series [2] (3.13 μg/ml tripterinin). The “fold inhibition of IL-2 induced DNA synthesis” value in series [3] (concentration range 0 to 0.78 μg/ml) is over 10 fold. For the same compound, the “fold decrease in IL-2 induced HT-2 cell proliferation (thymidine incorporation)” value in series [3] (tripterinin 0.4 μg/ml) was “more than 10 fold”. Further, the “decrease in IFNγ production” value came to 84% in series [4] (0.7 μg/ml tripterinin) and 80% in series [4] (3.13 μg/ml tripterinin). The “concentration at which IL-1 stimulated cell proliferation was inhibited” value in series [5] (mouse thymocytes, IL-1 with PHA, FIG. 10) is “about 0.2 μg/ml”. In addition, the “inhibition of IL-1 stimulated thymocyte proliferation” value in series [5] (tripterifordin 3.13 μg/ml, about 3 μg/ml, tripterinin 0.02 to 1 μg/ml) is listed as “dose dependent inhibition”.
